Tests used:
[1] = tested on: core clock genes Per2, Bmal1, Cry2 in liver; assay: Four day study, liver core clock gene mRNA in ICR mice; format: in vivo, mouse; settings: 50 mg/kg PO BID 4 days
Experimental: Male ICR mice (weighing 30-35 g), obtained from Charles River Laboratories (Hollister, Calif.), were used for the experiment following at least 3 days of acclimation. Mice were dosed with vehicle (WFI or 10% Kolliphor) or compound (50 mg/kg, dose volume 5 mL/kg, PO) for 4 days BID (twice a day), beginning in the afternoon of the first day. The last dose of compound or vehicle was administered on the morning of harvest. On the day of harvest (6 hours following the final dose), mice were euthanized by CO2 asphyxiation and 50 mg of liver tissue was excised and placed in a tube containing 500 μl of RNA later.
E.Z.N.A.® HP Total RNA Isolation Kits (R6812-01 and the protocol described in the Manual, Revised 2010) were utilized to prepare and isolate RNA from the liver samples. To prepare the RNA samples, 10-30 mg of sample was removed from RNA-Later and placed in a 1.5 ml microfuge tube. GTC lysis buffer (700 μl) was added to the tissue, which was homogenized with a rotor-stator homogenizer (e.g. Tissue-Tearor, Model #985370 BioSpec Products with 4.5 mm probe, Cat. #985370-04), and then centrifuged at full speed (≥13,000×g) for 5 minutes. The cleared supernatant was transferred by pipetting to a DNA Clearance Column Pre-inserted in a 2 mL Collection Tube. The assembled column was centrifuged at 13,000×g for 1 minute, and the flow-through was saved. An equal volume (700 μl) of 70% ethanol was added to the lysate and mixed. The sample was then applied to a HiBind RNA spin column placed into a 2 ml collection tube, which was centrifuged at 10,000×g for 60 seconds at room temperature. RNA Wash Buffer I (250 μl) was added by pipetting directly onto a new HiBind RNA column inserted in a 2 ml collection tube. The assembled column was centrifuged at 10,000×g for 60 seconds. The RNA column was placed into a new 2 ml collection tube. DNase I stock solution is pipetted (75 μl) directly onto the surface of the HiBind RNA resin in each column (Using DNAse Digestion with RNase Free DNase Set (E1091): for each HiBind RNA column, the DNase I stock solution was prepared as followed: E.Z.N.A.® DNase I Digestion Buffer 73.5 μl, RNase Free DNase I (20 Kunitz/μl) 1.5 μl=Total Volume 75 μl). The column with bound RNA was incubated at room temperature (25-30° C.) for 15 minutes. RNA Wash Buffer I (500 μl) was added to the column and placed on a bench top for 2 minutes. After centrifuging at 10,000×g for 60 seconds, discarding the flow-through, 500 μl of RNA Wash Buffer II was added and centrifuged at 10,000×g for 60 seconds. Another 500 μl of RNA Wash Buffer II was added and the column assembly was centrifuged at 10,000×g for 60 seconds. The column was centrifuged for 2 minutes at maximum speed to completely dry the HiBind matrix. The column was placed in a clean 1.5 ml microcentrifuge tube and 40-70 μl of molecular biology grade water is added. After sitting for 1 minute, the column was centrifuged for 2 minutes at maximum speed to elute the RNA. The isolated RNA was collected into the collection tube.
RediPlate 96 RiboGreen RNA Quantification Kit (Invitrogen) RediPlate standard curve was prepared by transferring 20 l reconstituted RNA standard to a RediPlate well reconstituted in 180 l RediPlate TE buffer. For liver RNAs prepared from 30-100 mg of tissue using a kit similar to the Omega Bio-Tek HP Total RNA Kit and eluted in RNAse-free water in a volume of 50 l (microliters), 5 l of the total RNA is diluted in 195 l of RediPlate TE buffer (1:40 dilution of RNA), mix. After transferring 5 l to RediPlate well reconstituted in 195 l TE buffer and incubating 10 min. at RT, Fluorescence Intensity of wells with standards and samples were read in a Tecan M200 with Excitation set at 480 nm and Emission set at 520 nm with the gain set to ˜70%. Alternatively, one can use the FlexStation 3 with Ex 488 nm and Em 525 nm and a Cutoff of 515 nm.

[2] = target: isolated FAD-binding domain of human CRY1 protein (hCRY1) (Homo sapiens (Human), UniProt Q16526); assay: Thermal shift binding assay (differential scanning fluorimetry)
Sequence of isolated FAD-binding domain of human CRY1 protein (hCRY1) (Q16526 1-494): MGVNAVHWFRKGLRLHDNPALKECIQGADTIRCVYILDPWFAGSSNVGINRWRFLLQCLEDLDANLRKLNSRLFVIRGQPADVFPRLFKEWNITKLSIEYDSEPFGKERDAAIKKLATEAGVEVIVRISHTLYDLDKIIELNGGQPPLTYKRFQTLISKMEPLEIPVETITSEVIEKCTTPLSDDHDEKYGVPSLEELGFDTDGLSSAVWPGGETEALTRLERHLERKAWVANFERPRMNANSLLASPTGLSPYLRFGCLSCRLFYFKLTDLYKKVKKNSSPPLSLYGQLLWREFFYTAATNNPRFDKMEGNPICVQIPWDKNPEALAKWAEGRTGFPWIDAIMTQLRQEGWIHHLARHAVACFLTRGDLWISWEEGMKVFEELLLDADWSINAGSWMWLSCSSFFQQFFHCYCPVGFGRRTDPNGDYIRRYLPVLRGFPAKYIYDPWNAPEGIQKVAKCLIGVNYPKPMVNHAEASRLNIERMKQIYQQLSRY
Experimental: Binding of compounds to the isolated FAD-binding domain of human CRY1 protein (hCRY1) was determined using a differential scanning fluorimetry (‘thermal shift’) assay (Pantoliano et al. (2001) J Biomol Screening 6, 429; Niesen et al. (2007) Nature Protocols 2, 2212). The FAD-binding domain of hCRY1 (amino acid residues 1-494) with a C-terminal Myc-DDK tag (FADBD), was produced by transient transfection of HEK293T cells (Catalog # CRL-3216, American Type Culture Collection) and purified by anti-FLAG affinity chromatography (Catalog # A2220, Sigma-Aldrich). FADBD (0.5 μg per well) was incubated with dilutions of compounds in DMSO (5% DMSO final concentration in reaction) in 17.5 μl Tris-buffered saline (TBS) for 10 minutes on ice, then 2.5 μl of 8× Sypro-Orange Dye (Life Technologies) was added to each well. Triplicate wells were assayed for each compound concentration. The melting temperatures were measured in an ABI7500 quantitative PCR instrument using the melt curve mode with a thermal profile of 2 minutes at 25° C., followed by a ramp rate of 1° C./minute up to 99° C. The melting temperature for each well was determined from the first derivative of the melt curve. The change in melting temperature (ΔTm) was obtained by subtraction of the melting temperature of the FADBD in 5% DMSO alone.

[3] = tested on: core clock gene mRNAs in liver; assay: Single dose at peak or nadir of Cry1 expression, liver core clock gene mRNAs; format: in vivo, mouse; settings: single dose at ZT0 (peak) or ZT10 (nadir); liver 7.5 hours later
Experimental: For compounds that interact directly with the core clock mechanism, the time of dosing may be critical for maximizing their effects. […] The former (ZTO) is coincident with the peak of Cry1 and Bmal1 protein in mouse liver and the latter (ZT10) corresponds to the approximate nadir of Cry1 and Bmal1. Liver tissue was taken 7.5 hours later for each, and the samples were examined for core clock gene mRNAs by RT-qPCR.

C57/Bl6J DIO mice = assay: Compound 72 in diet-induced obesity (DIO) mouse model; format: in vivo; settings: 100 mg/kg PO QD 7 days
From the text: Male C57/Bl6J DIO mice were obtained from The Jackson Laboratory (Sacramento, Calif.). […] Animals were accustomed to these conditions for at least 2 weeks before experimentation and used at approximately 24 weeks of age.
Significance was accepted when p<0.05.

O=C1NCCN1CC(O)Cn1c2ccc(F)cc2c2cc(F)ccc21 (stereo not shown) [Compound 72, 1-(3-(3,6-difluoro-9H-carbazol-9-yl)-2-hydroxypropyl)imidazolidin-2-one]
liver Per2 expression ([1]; ZT6): suppression
Cry2 transcripts ([1]; liver): decrease
increase in Bmal1 mRNA at ZT6 ([1]; liver): 4 fold
change in melting temperature (ΔTm) of hCRY1 FADBD [2]: dose-dependent increase
impact on core clock mRNAs, dosing at peak vs nadir of Cry1 [3]: greater relative impact on the clock mRNAs at the peak compared to the nadir
OGTT glucose course (C57/Bl6J DIO mice): much lower than the vehicle control group
glucose AUC from OGTT (C57/Bl6J DIO mice): 17055+/−769.1 units

Reference: US10759777B2, “Carbazole-containing amides, carbamates, and ureas as cryptochrome modulators” (Synchronicity Pharma, Inc., priority 2014, dated 2020)
